Test results from patent US12187727B2, “Methods for antagonizing a melanocortin 4 receptor” (Pfizer Inc., priority 2020, dated 2025).

How the values were obtained:
hMC4R = hMC4R (Homo sapiens (Human), UniProt P32245); experiment: In vitro binding affinity assay using hMC4R (radioligand competition binding, [125I]-(Nle4, D-Phe7)-α-MSH); details: geometric mean, read-out: Ki (nM) geometric
[1] = biological target: human Melanocortin-4 receptor (MC4R) (Homo sapiens (Human), UniProt P32245); experiment: Functional in vitro MC4R antagonist potency assay (cAMP HTRF in CHO cells); format: cell-based; details: human MC4R in CHO cells, cAMP HTRF, 200 nM aMSH challenge; Kb from IC50 by Leff-Dougall equation; geometric mean; read-out: Kb (nM) Antagonist geometric
Chain of human Melanocortin-4 receptor (MC4R) (P32245 whole entry): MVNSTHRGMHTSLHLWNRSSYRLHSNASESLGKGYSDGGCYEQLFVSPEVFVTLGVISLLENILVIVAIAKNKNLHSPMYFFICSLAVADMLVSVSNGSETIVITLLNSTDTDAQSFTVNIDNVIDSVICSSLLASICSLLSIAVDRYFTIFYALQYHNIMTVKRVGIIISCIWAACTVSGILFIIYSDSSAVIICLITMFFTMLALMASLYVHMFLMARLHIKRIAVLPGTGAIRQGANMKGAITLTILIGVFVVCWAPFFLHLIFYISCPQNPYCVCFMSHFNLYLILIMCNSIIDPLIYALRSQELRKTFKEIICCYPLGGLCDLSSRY
Method in brief: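 CHO cells stably expressing human MC4R were preincubated 30 min at 37 °C with compound ([…], 0.1% DMSO), then stimulated 30 min with EC80 αMSH (200 nM). Intracellular cAMP quantified by HTRF competitive immunoassay and normalized to agonist-stimulated and vehicle-only wells.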

Chain of hMC4R (P32245 whole entry): as above

Ki (hMC4R) [nM] | Kb [1] [nM] | Structure (SMILES)
17 | 8 | COc1cc([C@@H](C)C(=O)N2CC[C@@]3(CCc4cc(-c5nc(OC)n(C)n5)c(C)nc4N3)C2)c(F)cn1 (single isomer, unassigned) [Example 113]
0.48 | 0.25 | COc1cc([C@@H](C)C(=O)N2CCC3(CCc4cc(-c5nc(OC)n(C)n5)c(C)nc4N3)C2)c(Cl)cn1 (single isomer, unassigned) [Example 114]
31 | 3.5 | COc1cc([C@@H](C)C(=O)N2CCC3(CCc4cc(-c5nc(OC)n(C)n5)c(C)nc4N3)C2)c(Cl)cn1 (single isomer, unassigned) [Example 115]
6.7 | 0.81 | COc1cc([C@@H](C)C(=O)N2CC[C@@]3(CCc4cc(-c5nc(C(F)F)n(C)n5)c(C)nc4N3)C2)nc(C)n1 (single isomer, unassigned) [Example 124]
10 | 3.8 | COc1cc([C@@H](C)C(=O)N2CC[C@@]3(CCc4cc(-c5nnn(C)n5)c(C)nc4N3)C2)nc(C(F)F)n1 (single isomer, unassigned) [Example 128]
0.44 | 1.5 | COc1cc([C@@H](C)C(=O)N2CC[C@@]3(CCc4cc(-c5nc6ccccn6n5)c(C)nc4N3)C2)nc(C(F)F)n1 (single isomer, unassigned) [Example 129]
5.9 | 9 | COc1cc([C@@H](C)C(=O)N2CC[C@@]3(CCc4cc(-c5nc6ccccn6n5)c(C)nc4N3)C2)nc(C(F)F)n1 (single isomer, unassigned) [Example 130]
3.4 | 35 | COc1ncc(F)c([C@@H](C)C(=O)N2CC[C@@]3(CCc4cc(-c5nc6ccccn6n5)c(C)nc4N3)C2)n1 (single isomer, unassigned) [Example 132]
3.8 | 10 | COc1ncc(F)c([C@@H](C)C(=O)N2CC[C@@]3(CCc4cc(-c5nnn(C)n5)c(C)nc4N3)C2)n1 (single isomer, unassigned) [Example 135]
59 | 19 | COc1cc([C@@H](C)C(=O)N2CC[C@@]3(CCc4cc(-c5ncccn5)c(C)nc4N3)C2)c(C)cn1 (single isomer, unassigned) [Example 137]
1.8 | 7.9 | COc1cc([C@](C)(F)C(=O)N2CC[C@@]3(CCc4cc(-c5ncccn5)c(C)nc4N3)C2)c(F)cn1 (single isomer, unassigned) [Example 149]
230 | > 94 | Cc1nc2c(cc1-c1ncccn1)CC[C@@]1(CCN(C(=O)[C@H](C)c3ccc(F)cc3F)C1)N2 (single isomer, unassigned) [Example 191]
1.2 | 3.5 | Cc1nc2c(cc1-c1ncccn1)CC[C@@]1(CCN(C(=O)[C@H](C)c3ccnc(OC(F)F)c3)C1)N2 (single isomer, unassigned) [Example 195]
0.25 | 0.47 | COc1cc([C@@H](C)C(=O)N2CC[C@@]3(CCc4cc(-c5nc6ccccn6n5)c(C)nc4N3)C2)c(F)cn1 [Example 111, (2R)-2-(5-fluoro-2-methoxypyridin-4-yl)-1-[(2S)-7-methyl-6-([1,2,4]triazolo[1,5-a]pyridin-2-yl)-3,4-dihydro-1H-spiro[1,8-naphthyridine-2,3′-pyrrolidin]-1′-yl]propan-1-one]
18 | 33 | COc1cc([C@@H](C)C(=O)N2CC[C@@]3(CCc4cc(-c5cncc(OC)n5)c(C)nc4N3)C2)c(F)cn1 [Example 197, (2R)-2-(5-fluoro-2-methoxypyridin-4-yl)-1-[(2S)-6-(6-methoxypyrazin-2-yl)-7-methyl-3,4-dihydro-1H-spiro[1,8-naphthyridine-2,3′-pyrrolidin]-1′-yl]propan-1-one]

Structure (SMILES) | Ki (hMC4R) [nM] | Kb [1] [nM]
COc1cc(CC(=O)N2CC[C@@]3(CCc4cc(-c5ncccn5)c(C)nc4N3)C2)c(F)cn1 [Example 106, 2-(5-fluoro-2-methoxypyridin-4-yl)-1-[(2S)-7-methyl-6-(pyrimidin-2-yl)-3,4-dihydro-1H-spiro[1,8-naphthyridine-2,3′-pyrrolidin]-1′-yl]ethan-1-one] | 3.5 | 6.3
